The text below walks through data of US8022235B2, “Compositions of phospholipid ether boronic acids and esters and methods for their synthesis and use” (Cellectar, Inc., priority 2007, dated 2011).

The nature of data set [1]: Human safety studies of unlabeled NM404. In kind it is in vivo. The following applies: normal male humans, mass of 10 times the anticipated imaging dose. As for the experimental part:
Formal toxicology studies of NM404 in male rats and rabbits were performed at the Toxicology Research Center of the State University of New York at Buffalo under the direction of Dr. Paul Kostyniak. Drug vehicle and drug product were provided to Dr. Kostyniak by Dr. Raymond Counsell of the University of Michigan for testing as described in the appended synopses of Study 27 and Study 28. […] Human safety studies of unlabeled NM404 were initiated in normal male humans at a mass of 10 times the anticipated imaging dose and about 21 times the anticipated therapy dose. […] This toxicology study was performed under GLP conditions.

The subject of the next data set is Subcutaneous CT-26. Briefly: Imaging and tissue distribution, tumor model. In kind it is in vivo, Mouse xenograft. The following applies: Colorectal adenocarcinoma.
Data set [2] relates to A549 human non-small cell lung cancer xenografts. Put plainly: Single-dose 125I-NM404 treatment, tumor volume, A549 xenografts. In kind it is in vivo, SCID mice. The following applies: unlabeled compound (control group), 10-week assessment. From the text:
FIG. 3 illustrates antitumor effect of single-dose treatment with ^125I-125-NM404 at doses of 50 (∘), 150 (□), 250 (⋄) and 500 (∘) μCi in SCID mice bearing A549 human non-small cell lung cancer xenografts. In FIG. 3, control animals show rapidly growing tumors over the 10-week assessment period. […] Tumor volumes are stable and some tumors appear “collapsed” (the tumor surface has collapsed). Additionally, hair above the tumors fell off confirming substantial accumulation of radioactivity in these tumors.
FIG. 4 is an image showing one of the tumor-bearing animals treated with 250 μCi of ^125I-NM404 at 4 weeks following injection. The hair above the tumor has fallen off, apparently due to the significant accumulation of radioactivity in the tumor. […] The measurement method for determining outer tumor dimensions may have underestimated tumor volume response following dosing with ^125I-NM404;
The inventors have previously shown that ^125I-labeled PLE analogs such as NM404 are effective in targeting tumor therapies to tumor cells following single injection and fractionated dosing. For assessment of efficacy of ^125I-NM404 treatment, assessments of tumor volume were made until 10 weeks post-injection or until no animal in the control group was alive, whatever came first. Summarizing the results, control animals show rapidly growing tumors over the 10-week assessment period. See, FIGS. 2 and 3. […] Tumor volumes are stable and the same tumors appear “collapsed” (the tumor surface has caved in). Additionally, the hair above the tumors fell off confirming substantial accumulation of radioactivity in these tumors, FIG. 4. […] (See also, for example, U.S. patent application Ser. No. 11/671,403 hereby incorporated in its entirety for all purposes.)

The test system of another data set is Mammary Hyperplasia. Briefly: Imaging and tissue distribution, tumor model. It is filed as in vivo, Endogenous Mouse. The following applies: Alveolar Hyperplasia.
The test system of data set [3] is human PC-3 prostate tumor xenografts. Put plainly: Scintigraphy, microPET and tissue distribution in PC-3 tumor model. In kind it is in vivo, SCID mice. Here is the method: The avidity of PLE and APC analogs to localize in tumors was evaluated in several animal models. The PC-3 model represents a human tumor cell line that was used to determine the target (tumor) to non-target ratio of NM404 and NM412 in head to head comparison in order to select a candidate for an initial human pharmacokinetic trial in prostate cancer patients. The MatLyLu (Dunning R3327 rat) model, a rat prostate tumor line, was used specifically to screen 9 specific analogs prior to entering them into control for dosimetry and tumor-bearing animals for determining tumor/background ratios. Finally, the Walker-256 carcinosarcoma model was used for quantitative tissue distribution purposes.
Gamma camera scintigraphy images shown in FIG. 5 directly compare the tumor uptake and body clearance of second generation analog ^125I-NM404 (1) versus its shorter chain, first generation predecessor, ^125I-NM324 (12-(m-iodophenyl)dodecyl phosphocholine) at 1, 2, and 4 days post administration in immune-compromised SCID mice bearing human PC-3 prostate tumor xenografts.
Tumor uptake, however, continued to increase up until day 5 when it reached 18% injected dose per gram of tumor. […] Tumor to background tissue ratios exceeded 4, 6.8, 23, and 9 in blood, liver, muscle, and prostate, respectively, 3 days after injection and continued to improve at 5 and 8 days. Again, although thyroid levels ranged from 26 to 54% injected dose per gram of tissue, these levels are actually quite low and represent an extremely small percentage of the injected dose when the exceedingly small mass of the organ is considered and the data are presented on a percent administered dose per organ basis.

A further data set has as its system Mammary SCC and ACC. Put plainly: Imaging and tissue distribution, tumor model; therapeutic responses at imaging doses. It is filed as in vivo, Apc^Min/+mouse. The following applies: Squamous cell carcinoma and Adenocarcinoma. From the text: (§1) During the course of mouse tumor uptake and retention studies with “imaging” doses (15-20 μCi/20 g mouse) of ^125I-labeled NM404, several apparent therapeutic responses have been observed (unpublished results). […] Some of these animals also lost all hair above larger mammary tumors at around 8 days after injection. Moreover, these mice also get intestinal tumors and usually suffer from intestinal bleeding resulting in severe anemia, which renders their feet white. […] Another compelling example of tumor regression is illustrated in FIG. 13. Two litter mates each received SCC1 and SCC6 xenografts in their left and right flanks, respectively. One mouse received a single injection of ^125I-NM404 (20 μCi). […] These coincidental findings were reconfirmed in two separate age-matched groups each involving more than 6 mice.

Data set [4] relates to non-small cell lung cancer (NSCLC). Briefly: Initial human pharmacokinetic evaluation, planar gamma-camera scintigraphy. It is filed as in vivo. The following applies: relative to NM324. The source says:
FIG. 6A-C images of lung cancer patient, posterior whole body planar nuclear medicine image (A) 4 days after iv administration of ^131I-NM404 (0.8 mCi) to a patient with non small cell lung cancer (6 cm dia., arrow). Lung tumor is easily detected in corresponding axial (B) and coronal (C) computed tomography (CT) scans;
In preparation for human clinical trials, unlabeled NM404 was subjected to independent (University of Buffalo Toxicology Research Center) acute toxicity evaluation at 1200 times the anticipated imaging mass dose in rats and rabbits. […] Due to its selective tumor uptake and retention properties in a variety of rodent tumor models and subsequent excellent safety profile in rats and rabbits, NM404 was selected to undergo initial human pharmacokinetic evaluation in non-small cell lung cancer (NSCLC) patients. Patients underwent planar gamma-camera scintigraphy after receiving an injection of ^131I-NM404 (<1 mCi).

Data set [5] concerns mouse intestinal adenocarcinoma model. Put plainly: Therapeutic responses at imaging doses, aggressive intestinal model. The following applies: 12 days following administration, ^125I-labeled. It is filed as in vivo.
Text: as §1

Text for Subcutaneous CT-26: Imaging and tissue distribution studies performed in mouse models aimed at determining the uptake characteristics in a wide variety of tumor models are summarized in Table 1, below.

Take `C[N+](C)(C)CCOP(=O)([O-])OCCCCCCCCCCCCCCCCCCc1ccc(I)cc1` [NM404, 18-(p-iodophenyl)-octadecyl phosphocholine]: the toxicity entry in data set [1] is on record as “no toxicity attributable to the drug substance”. Besides, the Uptake result is given as “Yes” with Subcutaneous CT-26; “No” with Mammary Hyperplasia; “Yes” in data set [3] (Prostate PC-3, Adenocarcinoma); “Yes” with Mammary SCC and ACC. In data set [2], the “effect on tumor growth” value is reported as “no substantial effect on tumor growth”. For the same compound, in data set [3] (3 days after injection), the “tumor to background tissue ratio, blood” value is on record as “exceeded 4”. Also, in data set [3] (3 days after injection), the “tumor to background tissue ratio, liver” value is given as over 6.8. Moreover, the “tumor to background tissue ratio, muscle” value in data set [3] (3 days after injection) is on record as over 23. In addition, the “tumor to background tissue ratio, prostate” value in data set [3] (3 days after injection) is given as over 9. For the same compound, the “elimination of radioactivity from normal tissues” value in data set [3] (8 day evaluation period) is recorded as “rapid elimination of radioactivity from all normal tissues”. Also, the tumor uptake entry in data set [3] (SCID mouse prostate and A549 lung cancer tumor models) is listed as “exceeding 25 % of the injected dose”; in data set [3] (radioiodinated NM404, day 5 (maximum)), 18 % injected dose per gram of tumor. In addition, the “liver and background radioactivity” value in data set [3] (scintigraphy at 1, 2 and 4 days, compared with NM324) was “much improved”. Also, the “liver and abdominal radioactivity levels” value in data set [4] was “much lower”. In addition, in data set [5], the “intestinal tumors at dissection” value was “most, if not all, of the expected intestinal tumors were gone”.
